Four compounds from US20140378408A1, “NUCLEOSIDE 5'-PHOSPHOROTHIOATE ANALOGUES AND USES THEREOF” (BAR-ILAN UNIVERSITY, an Israeli University, priority 2012, published 2014) can be followed below.

Series [1] has as its target T1, Aβ40-Cu^2+ aggregates (Homo sapiens, UniProt P05067).
T1 construct: purchased GL-Biochem (Shanghai)
As to the kind of experiment: DLS, size reduction of Aβ40-Cu^2+ aggregates. How it is done: PBS buffer, Aβ40, chelator, Zn(NO3)2, and Cu(NO3)2 solutions were filtered through a […] PVDF syringe filter. 496 μM Aβ40 solution in 10 mM PBS (pH 7.4) and 2 mM Zn(NO3)2 solution were mixed to obtain 200 μM Aβ40-Zn^2+ (1:1 ratio) of a cloudy solution. Similarly, 2 mM Cu(NO3)2 solution was added to 496 μM Aβ40 in 10 mM PBS (pH 6.6). Aβ40-Zn^2+/Cu^2+ (10 μl) solution was transferred to Eppendorf tubes containing 10 mM PBS buffer (64 or 67 μl) followed by the addition of 3 and 6 eq of 2 mM nucleotide (6 or 3 μl) solution and incubation for 45 min at RT. The resulting mixture was incubated for another 30 min at RT and DLS data were then collected in a 70 μl disposable cuvette. The final sample concentrations were 25 μM Aβ40, 25 μM Zn^2+ or Cu^2+, and 150 or 75 μM nucleotide.
Monomeric Aβ40 was incubated with either Cu^2+ or Zn^2+ for 45 min to form a 1:1 peptide metal-ion complex. […] For the Aβ40-Zn^2+ particles the instrument readings indicated a different size distribution. […] We evaluated the capacity of the phosphorothioate analogues to dissolve Aβ40-Cu^2+ or Zn^2+ aggregates, as compared to EDTA and clioquinol known for their ability to dissolve Aβ-M^2+ aggregates (Ritchie et al., 2003; Huang et al., 1997). The reduction of dH of Aβ40-Cu^2+ aggregates by EDTA, clioquinol, or tested compounds was compared to the dH of Aβ-Cu^2+ aggregate itself (FIG. 5A). In addition, the efficacy of the chelators ATP-γ-S, ADP-β-S, APCPP-γ-S and GDP-β-S to resolubilize Aβ40-Cu^2+ and Aβ40-Zn^2+ is described in FIGS. 5B and 5C relative to EDTA and clioquinol. EDTA efficiency in reducing Aβ particle size is considered as 100%.

Series [2] addresses T2, Aβ42-Zn^2+ aggregates (Homo sapiens, UniProt P05067).
T2 construct: Aggregation of monomeric Aβ42 was achieved by adding Zn(NO3)2 to a Aβ42 solution; purchased GL-Biochem (Shanghai)
Nature of the series: Turbidity assay at 405 nm, Aβ42-Zn^2+ aggregates. The protocol:
Aβ42 was weighted and dissolved in 10 mM NaOH, sonicated for 3 min and then freeze-dried. The freeze-dried Aβ42 was dissolved in 50 mM Tris-HCl (pH 7.4). The mixture was split and the pH of one of the samples was adjusted to 7.4 and the second sample to 6.6 by addition of 200 μM HCl. Two 300 μM Aβ42 mixtures were obtained. From these mixtures, controls and Aβ42-M^2+ aggregates were prepared by the addition of 1 mM Zn(NO3)2 or Cu(NO3)2 in DDW: 1. 200 μM Aβ42 (pH 7.4); 2. 200 μM Aβ42 (pH 6.6); 3.4×200 μM Aβ42-Zn^2+ (pH 7.4); 4.4×200 μM Aβ42-Cu^2+ (pH 6.6). The mixtures were left at RT for 2 h to form aggregates. 1 mM EDTA, ADP-β-S, and APCPP-γ-S in DDW were added to Aβ42-Zn^2+/Cu^2+ aggregates, then the mixtures were diluted with buffer to give the following mixtures: (i) 50 μM Aβ42-Cu^2+/Zn^2+; (ii) 50 μM Aβ42-Cu^2+/Zn^2+ containing 150 μM chelator (3 eq or) 300 μM chelator (6 eq) final volume 100 μl. The mixtures left at RT for 30 min before measurements, done in duplicate. 80 μl sample was taken for measurements in a quartz cuvette.
Aggregation of Aβ-metal ion complexes results in a turbid mixture that increases the light scattering in solution, leading to a higher absorbance at 405 nm (Storr et al., 2009).
Aggregation of monomeric Aβ42 was achieved by adding Zn(NO3)2 to a Aβ42 solution at pH 7.4, and Cu(NO3)2 to a Aβ42 solution at pH 6.6. […] The resultant Aβ42 mixtures were assayed for the resolubilization capacity of ADP-β-S and APCPP-γ-S in comparison to EDTA. […] At […] chelator, EDTA, ADP-β-S and APCPP-γ-S were almost equi-efficacious (FIG. 8B).

Series [3] deals with T3, human NPP3 (Homo sapiens, UniProt O14638).
T3 construct: made in house; host or cells: COS-7 cells (transfected; protein extract / cell lysate)
T3 sequence (O14638 1-875): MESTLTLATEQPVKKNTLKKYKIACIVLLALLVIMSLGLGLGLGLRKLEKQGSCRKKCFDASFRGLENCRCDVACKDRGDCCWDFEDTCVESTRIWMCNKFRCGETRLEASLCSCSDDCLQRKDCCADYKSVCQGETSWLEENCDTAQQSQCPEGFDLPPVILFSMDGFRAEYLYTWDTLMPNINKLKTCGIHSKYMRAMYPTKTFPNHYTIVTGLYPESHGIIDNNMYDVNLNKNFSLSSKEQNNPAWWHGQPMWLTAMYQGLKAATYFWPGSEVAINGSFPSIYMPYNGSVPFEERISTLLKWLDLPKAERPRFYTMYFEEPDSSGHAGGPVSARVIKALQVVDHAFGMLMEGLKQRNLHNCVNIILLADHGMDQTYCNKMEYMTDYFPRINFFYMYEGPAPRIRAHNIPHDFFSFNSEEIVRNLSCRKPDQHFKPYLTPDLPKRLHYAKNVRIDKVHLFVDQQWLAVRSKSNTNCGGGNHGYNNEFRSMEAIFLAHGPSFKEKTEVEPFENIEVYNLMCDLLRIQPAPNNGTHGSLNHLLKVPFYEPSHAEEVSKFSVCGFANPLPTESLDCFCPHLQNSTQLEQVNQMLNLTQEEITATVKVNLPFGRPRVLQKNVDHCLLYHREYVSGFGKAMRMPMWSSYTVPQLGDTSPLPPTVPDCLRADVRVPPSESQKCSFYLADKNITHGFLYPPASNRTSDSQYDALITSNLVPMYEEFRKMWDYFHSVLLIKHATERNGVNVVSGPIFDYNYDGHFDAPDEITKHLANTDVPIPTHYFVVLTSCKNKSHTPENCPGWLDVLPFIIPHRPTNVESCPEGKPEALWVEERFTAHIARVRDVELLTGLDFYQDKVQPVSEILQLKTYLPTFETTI
Nature of the series: Hydrolysis by human NPP3. It counts as in vitro ADME. The conditions noted are these: 100 μM, 1 h, compared to ATP.

T2 sequence (P05067 672-713 limits assumed): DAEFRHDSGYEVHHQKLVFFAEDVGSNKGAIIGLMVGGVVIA
T1 sequence (P05067 672-711 limits assumed): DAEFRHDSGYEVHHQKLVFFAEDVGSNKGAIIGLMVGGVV

With `Nc1ncnc2c1ncn2[C@@H]1O[C@H](COP(=O)(O)OP(O)(O)=S)[C@@H](O)[C@H]1O` [ADP-β-S, adenosine 5′-[β-thio]diphosphate, reference compound], the “fold better than GDP-β-S in reducing dH of Aβ40-Cu^2+ aggregates” value in series [1] came to 5.4 fold. In addition, the “less effective than EDTA by” value in series [2] (3 eq) was determined as 63%; in series [2] (6 eq), 27%.
Take `Nc1ncnc2c1ncn2[C@@H]1O[C@H](COP(O)(=S)OP(=O)(O)CP(=O)(O)O)[C@@H](O)[C@H]1O` (single isomer, unassigned; isomer b) [APPCP-α-S (isomer B), adenosine 5′-[Pα-thio]-β,γ-methylenetriphosphate]: the “Hydrolysis by NPP3” value in series [3] is roughly 4%.
For the compound `Nc1ncnc2c1ncn2[C@@H]1O[C@H](COP(=O)(O)CP(=O)(O)OP(O)(O)=S)[C@@H](O)[C@H]1O` [APCPP-γ-S, adenosine 5′-[Pγ-thio]-α,β-methylenetriphosphate], in series [1] (aggregate alone 1836 nm, 25 μM Aβ40-Cu^2+, pH 6.6), the “dH (particle size) of Aβ40-Cu^2+ after chelator” value worked out at 64 nm. The figures for the “less effective than EDTA by” value in series [2] (3 eq) and in series [2] (6 eq) were 21% and 12%, respectively.
On to `Nc1ncnc2c1ncn2[C@@H]1O[C@H](COP(O)(=S)OP(=O)(O)CP(=O)(O)O)[C@@H](O)[C@H]1O` (single isomer, unassigned; isomer a) [APPCP-α-S (isomer A), adenosine 5′-[Pα-thio]-β,γ-methylenetriphosphate], for which the “Hydrolysis by NPP3” value in series [3] is recorded as roughly 1%.
